# Assay results taken from US20250090621A1, “METHODS AND COMPOSITIONS FOR THE TREATMENT OF AGE-RELATED MACULAR DEGENERATION” (Stealth BioTherapeutics Inc., priority 2023, published 2025).
# “Also recorded” adds a separate entry of the source. Residues, ends and D or L forms follow the SMILES beside them.
# Tested on: patients with at least one eye with dry AMD and GA
# Experiment: Phase 2 randomized, placebo-controlled, double-masked trial of elamipretide (NCT03891875)
# Assay type: in vivo, human
# Method: Study design. In this Phase 2, randomized, placebo-controlled, double-masked, multicenter, safety and efficacy trial (ClinicalTrials.gov identifier NCT03891875), patients with at least one eye with dry AMD and GA were included. Visit 1 (screening visit) was performed no more than 14 days before the baseline visit (visit 2, day 1) (FIG. 1). Eligible patients returned for the baseline visit, at which time they were randomized (interactive response system) in a 2:1 ratio to receive either elamipretide 40 mg or placebo administered with a pen injector delivery system as a single daily self-administered subcutaneous injection. This dose was chosen based on the systemic exposure and safety profiles of elamipretide in an earlier trial (Allingham 2022; Mettu 2022). Patients were treated for 48 weeks, with assessments at day 1 and weeks 4, 8, 12, 24, 36, and 48 (visits 2 to 8) plus a final safety follow-up visit 4 weeks after the last day of study treatment (week 52; visit 9). Patient diaries and vial counts were used and reviewed to verify compliance.
# Patients—Key inclusion criteria. The original protocol specified that adults≥55 years of age with one eye with dry AMD and GA were eligible for study entry. However, a subsequent amendment to the protocol limited inclusion to patients with noncentral GA. Noncentral GA and area was determined primarily by fundus autofluorescence (FAF) and all noncentral GA lesions were required to be ≥150 μm from foveal center with preserved outer retinal structural details, as confirmed by the central reading center (BIRC, Boston MA). Noncentral GA was required to be ≥0.05 mm^2 and ≤10.16 mm^2 in size, and reside completely within the FAF 30- or 35-degree image. […] The fellow eye was allowed to have AMD with or without GA, MNV, central GA, or no pathology.
# Patients—Key exclusion criteria. Key exclusion criteria for study eye included absence of observable hyper-FAF at the margins of the GA (only for lesions 0.25 mm^2), atrophic retinal disease of causality other than AMD including myopia-related maculopathy and monogenetic macular dystrophies including pattern dystrophy and adult-onset Stargardt disease. Presence or diagnosis of exudative AMD or MNV, presence of retinal vein occlusion or vitreous hemorrhage, history of retinal detachment or macular hole, presence of an epiretinal membrane that causes distortion of the retinal contour, vitreomacular traction, or advanced glaucoma in the study eye were also not allowed.
# Study objectives and endpoints. The primary efficacy endpoints were changes from baseline in LL BCVA and in square root converted GA area as measured by OCT. Secondary efficacy endpoints included changes in ellipsoid zone integrity, categorical changes from baseline in LL-BCVA, changes from baseline in LL reading acuity (LLRA), BCVA, and GA area as measured by FAF. Additional predefined endpoints included change in center 1-mm and 2-mm mean EZ-RPE thickness, National Eye Institute Visual Function Questionnaire (VFQ-39) score, RA at standard light, visual function by the Low-Luminance Questionnaire (LLQ). For efficacy endpoints, the unit of analysis was study eye; in cases where both eyes are eligible for analysis, the study eye was the eye with the worse LL BCVA as determined at baseline (right eye was the study eye for equal LL BCVA). Ellipsoid zone integrity was measured as previously described on OCT utilizing a machine learning enhanced multi-layer segmentation platform that provided panmacular assessment of the EZ and RPE location (Sirici, et al., Ophthamol Surg Lasers Imaging Retina, 2022; Itoh, et al, Br J Ophthamol, 2016).
# The primary safety objective was to evaluate the safety/tolerability of elamipretide. […]
# [1] = LS mean change from baseline to week 48, 40 mg SC once daily
smiles,measurement,setting,value
"Cc1cc(O)cc(C)c1C[C@H](NC(=O)[C@H](N)CCCNC(=N)N)C(=O)N[C@@H](CCCCN)C(=O)N[C@@H](Cc1ccccc1)C(N)=O [elamipretide, H-D-Arg-2′,6′Dmt-Lys-Phe-NH2] (HELM PEPTIDE1{[dR].[Cc1cc(O)cc(C)c1C[C@H](N[*:1])C(=O)[*:2]].K.F.[am]}$$$$V2.0)",LS mean change from baseline to week 48 for macular percentage of tEZa (EZ-RPE thickness of 0 μm),"40 mg SC once daily, OCT, mITT, placebo 6.47% [0.737], P=0.0034",3.69%
same,LS mean change from baseline to week 48 for pEZa (EZ-RPE thickness ≤20 μm),"40 mg SC once daily, OCT, mITT, placebo 7.68% [0.969], P=0.0040",4.10%
same,square root of GA area progression as measured by OCT,"40 mg SC once daily, week 48, mITT, placebo 0.275, P=0.34",0.312 mm
same,patients experiencing a ≥2-line gain (≥10 letter) in LL BCVA,"40 mg SC once daily, week 48, mITT, placebo 2.1%, P=0.0404",14.6%
same,percentage of patients at week 48 experiencing a >1-line gain,"40 mg SC once daily, in words, versus placebo",higher compared to placebo
same,progression of GA area relative to the baseline boundary of total EZ attenuation,"48-week trial, in words",did not progress to the baseline boundary of total EZ attenuation
same,progression of partial EZ attenuation versus placebo,"48 weeks, mITT, in words",reduces partial EZ attenuation
same,progression of total EZ attenuation versus placebo,"48 weeks, mITT, in words",significantly less progression of tEZa; also recorded: reduces total EZ attenuation
same,growth of partial EZ attenuation area during the trial,"48 weeks, placebo arm 34%",15%
same,growth of total EZ attenuation area (mm^2) during the trial,"48 weeks, placebo arm 48%",26%
same,reduction in progression of partial EZ attenuation relative to placebo,[1],47%
same,reduction in progression of total EZ attenuation relative to placebo,[1],43%
same,least squares (LS) mean change from baseline in LL BCVA,"elamipretide 40 mg SC once daily, week 48, mITT, study eye, placebo −4.4, P=0.49",−3.0 letters
same,"Early discontinuation, reason: Withdrawal by subject","elamipretide arm n=117, placebo 3 (5.1)",20 (17.1) n (%)
same,"Early discontinuation, reason: Adverse event","elamipretide arm n=117, placebo 4 (6.8)",10 (8.5) n (%)
same,Subjects leaving study early,"elamipretide arm n=117, placebo 8 (13.6)",34 (29.1) n (%)
same,"GA zonal lesion area, change from baseline at Week 48","mITT n=76, baseline 2.63, placebo 0.99",1.15 mm^2
same,patients who discontinued the study early,"of 117 randomized to elamipretide [29%], placebo n=8",34 patients
same,early discontinuation due to adverse events,"of 117 randomized to elamipretide, placebo 4",10 patients
same,early discontinuation due to withdrawal by subject,"of 117 randomized to elamipretide, placebo n=3",20 patients
same,"tEZa zonal lesion area, change from baseline at Week 48","post hoc, percent attenuation x total macular area on OCT, mITT n=72, baseline 5.39, placebo 2.23, p = 0.04",1.39 mm^2
same,"pEZa zonal lesion area, change from baseline at Week 48","post hoc, percent attenuation x total macular area on OCT, mITT n=72, baseline 9.03, placebo 2.65, p = 0.01",1.34 mm^2
same,progression of the EZ-GA gap,"post-hoc, total randomized population, baseline, 24 and 48 weeks, in words, versus placebo",slower rate of progression; also recorded: reduced progression of EZ-GA gap
same,"treatment effect in LL BCVA versus placebo, subgroup with mean center 1 mm EZ-RPE thickness ≥10-micron","post-hoc, week 48, in words",trended towards a treatment effect
same,categorical improvement in LL BCVA (≥2-line gain) versus placebo,"week 48, mITT, in words",significantly more patients experiencing a ≥2-line gain; also recorded: categorical improvement in LL BCVA
